Counter-ions that a name gives are not always drawn.
Tests used:
[1] = target: T1, 5-lipoxygenase (Rattus norvegicus, UniProt P12527); experiment: Lipoxygenase inhibitory activity ex vivo (leukotriene B4 in blood after oral administration); settings: 1 h, SD male rats, one hour before blood sampling, read-out: LTBI ED50 (50% inhibitory amount)
T1 construct: from tissue; host or cells: whole blood of male SD rats
T1 sequence (P12527 1-673): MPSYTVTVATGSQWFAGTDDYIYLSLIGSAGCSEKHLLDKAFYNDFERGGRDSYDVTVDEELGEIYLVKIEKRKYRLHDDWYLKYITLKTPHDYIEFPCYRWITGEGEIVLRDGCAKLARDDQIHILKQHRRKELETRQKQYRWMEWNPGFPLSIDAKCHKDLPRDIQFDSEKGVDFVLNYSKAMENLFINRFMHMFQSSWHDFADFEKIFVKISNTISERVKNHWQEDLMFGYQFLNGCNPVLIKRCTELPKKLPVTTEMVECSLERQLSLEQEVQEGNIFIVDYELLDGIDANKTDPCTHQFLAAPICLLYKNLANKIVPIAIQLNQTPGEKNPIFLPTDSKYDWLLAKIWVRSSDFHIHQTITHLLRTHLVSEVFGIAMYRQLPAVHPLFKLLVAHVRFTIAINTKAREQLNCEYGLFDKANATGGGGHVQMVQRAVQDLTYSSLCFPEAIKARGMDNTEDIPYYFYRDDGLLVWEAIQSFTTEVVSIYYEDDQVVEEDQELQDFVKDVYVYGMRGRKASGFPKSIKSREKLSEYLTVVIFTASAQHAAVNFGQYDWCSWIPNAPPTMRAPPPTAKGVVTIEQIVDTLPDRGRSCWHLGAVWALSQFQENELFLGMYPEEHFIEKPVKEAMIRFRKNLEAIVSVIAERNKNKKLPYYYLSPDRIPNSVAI
Text: (§1) (Measurement of Lipoxygenase Inhibitory Activity and Thromboxane Synthase Inhibitory Activity in Ex Vivo)
(§2) For the test animals, SD male rats were used. These were made to fast from the day before the test. The test drug was suspended in 0.5% sodium carboxymethylcellulose and orally administered one hour before the blood was taken. The blood was taken from the abdominal aorta and divided for the measurement of the thromboxane synthase inhibitory activity and the 5-lipoxygenase inhibitory activity.
The 5-lipoxygenase activity was shown using as an indicator the amount of production of leukotriene B4. 50 μM calcium ionophor (A-23187) was added to the divided blood to start the reaction (37° C., 30 minutes), and 1 mM Indomethacin, 1 mM Phenidone, and 0.1 mM EGTA were added to stop the reaction. The plasma was centrifuged (3000 rpm, 20 minutes, 4° C.) and the leukotriene B4 in the plasma was measured by the EIA method.

[2] = target: T2, thromboxane synthase (Rattus norvegicus, UniProt P49430); experiment: Thromboxane synthase inhibitory activity ex vivo (thromboxane B2 in serum after oral administration); settings: 1 h, SD male rats, one hour before blood sampling, read-out: TxSI ED50 (50% inhibitory amount)
T2 construct: The divided blood was allowed to naturally coagulate; from tissue; host or cells: whole blood of male SD rats, allowed to clot
T2 sequence (P49430 1-533): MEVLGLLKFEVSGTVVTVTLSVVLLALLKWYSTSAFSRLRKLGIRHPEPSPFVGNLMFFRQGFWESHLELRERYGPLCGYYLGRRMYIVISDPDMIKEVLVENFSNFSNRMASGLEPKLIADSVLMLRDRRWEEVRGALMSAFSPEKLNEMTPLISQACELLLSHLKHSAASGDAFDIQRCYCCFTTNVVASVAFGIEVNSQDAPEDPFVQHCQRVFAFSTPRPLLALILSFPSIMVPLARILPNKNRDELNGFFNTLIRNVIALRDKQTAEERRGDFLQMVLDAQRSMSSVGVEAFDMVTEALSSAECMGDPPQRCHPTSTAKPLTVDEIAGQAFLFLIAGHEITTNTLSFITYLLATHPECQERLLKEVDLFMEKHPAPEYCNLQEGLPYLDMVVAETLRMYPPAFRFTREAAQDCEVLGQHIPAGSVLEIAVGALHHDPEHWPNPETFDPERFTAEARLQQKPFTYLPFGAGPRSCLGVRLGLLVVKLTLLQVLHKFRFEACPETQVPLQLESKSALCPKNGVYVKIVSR
Text: as §1, §2
On the other hand, the thromboxane synthase activity was shown using as an indicator the amount of production of the thromboxane A2 stable metabolite thromboxane B2. The divided blood was allowed to naturally coagulate (25° C., 90 minutes) and then the serum was centrifuged (3000 rpm, 20 minutes, 4° C.) and the amount of thromboxane B2 in the serum was measured by the EIA method.

[3] = target: T3, lipoxygenase (Rattus norvegicus, UniProt P12527); experiment: Test of lipoxygenase inhibitory activity in vitro (leukotriene B4 production in polymorphonuclear leukocytes); format: cell-based; settings: calcium ionophore A-23187, read-out: LTBI IC50 (inhibition of the production of leukotriene B4)
T3 construct: the peritoneal cavities were lavaged and the polymorphonuclear leukocytes were recovered; endogenous in cells; host or cells: peritoneal polymorphonuclear leukocytes of male SD rats (casein-elicited)
T3 sequence (P12527 1-673): T1 sequence (P12527 1-673)
Procedure: (Test of Lipoxygenase Inhibitory Activity in In Vitro)
Using rat polymorphonuclear leukocytes, a test was conducted using as an indicator the amount of production of leukotriene B4. SD male rats (Japan Clea) were intraperitoneally administered with 12% sodium casein. After 16 hours, the peritoneal cavities were lavaged and the polymorphonuclear leukocytes were recovered. The polymorphonuclear leukocytes thus obtained were suspended in a phosphate buffer (137 mM NaCl, 3 mM KCl, 8 mM Na2 HPO4, 2 mM KH2 PO4) (2.5×10^5 cells/0.4 ml), then the test compound (final concentration 10^-5 M) was added and incubation performed for 10 minutes at 37° C. then a calcium solution (10 mM CaCl2, 0.86% NaCl) 0.1 ml was added and incubation performed for 5 minutes, then 1.25 μl of calcium ionophore (20 μM, A-23187) was added and the reaction started. Five minutes after the addition, 250 μl of methanol was added to stop the reaction. After the reaction was stopped, the result was centrifuged for 20 minutes (4° C., 3000 rpm), then the amount of leukotriene B4 in the supernatant was measured by the EIA method (Cayman Co. kit).
(§3) As the test compound, the compound (I) was used for the test.

[4] = target: T4, thromboxane synthase (Homo sapiens, UniProt P24557); experiment: Test of thromboxane synthase inhibitory activity in vitro (thromboxane B2 production, platelet microsomes); format: biochemical; settings: prostaglandin H2 substrate, read-out: TxSI IC50 (inhibition of production of thromboxane B2)
T4 construct: Human platelet microsomes were used; from tissue; host or cells: human platelet microsomes
T4 sequence (P24557 1-533): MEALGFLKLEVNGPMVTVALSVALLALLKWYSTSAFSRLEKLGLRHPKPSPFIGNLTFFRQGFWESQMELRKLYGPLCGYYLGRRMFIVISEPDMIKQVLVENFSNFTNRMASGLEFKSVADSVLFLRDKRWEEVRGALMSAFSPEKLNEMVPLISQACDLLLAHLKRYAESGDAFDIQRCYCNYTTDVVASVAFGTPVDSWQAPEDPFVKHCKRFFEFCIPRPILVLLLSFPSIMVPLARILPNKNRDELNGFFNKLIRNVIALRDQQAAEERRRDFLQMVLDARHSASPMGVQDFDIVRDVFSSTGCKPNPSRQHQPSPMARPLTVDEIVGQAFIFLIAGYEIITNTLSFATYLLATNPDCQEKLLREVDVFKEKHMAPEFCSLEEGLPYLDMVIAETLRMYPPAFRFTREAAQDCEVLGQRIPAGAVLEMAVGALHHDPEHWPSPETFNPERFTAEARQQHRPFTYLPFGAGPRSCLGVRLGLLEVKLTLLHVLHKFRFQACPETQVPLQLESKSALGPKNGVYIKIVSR
Procedure: (Test of Thromboxane Synthase Inhibitory Activity in In Vitro)
Human platelet microsomes were used and a test performed using as an indicator the amount of production of the thromboxane A2 stable metabolite thromboxane B2. A buffer solution (20 mM tris-HCl buffer solution, 1 mM EDTA, pH 7.5) containing human platelet microsomes (50 μg protein/ml) and the test compound (final concentration of 10^-6 M) was stirred, then incubated at 0° C. for 30 minutes, followed by adding prostaglandin H2 (100 ng/2 μl ). This was made acidic to stop the reaction, then neutralized with 1M Tris-base, then centrifuged at 3000 rpm for 20 minutes. The amount of the thromboxane B2 in the supernatant was measured by the EIA method (Cayman Co. kit).
as §3

[5] = system: antigen-induced bronchoconstriction; experiment: Antigen-induced bronchoconstriction model of guinea pig (Konzett-Rossler method); format: in vivo; settings: 2 hours after administration, ovalbumin-sensitized guinea pigs
Procedure: (Pharmacological Activity on Antigen-Induced Bronchoconstriction Model of Guinea Pig)
Guinea pigs sensitized by ovalbumin were used and orally administered with the test compound suspended in 5% gum arabic. The activity for inhibiting antigen-induced bronchoconstriction after 2 hours after administration was measured by the Konzett-Rossler method.
Each of the sensitized guinea pigs (i.e., 5-7 pigs in one group) was anesthesized by 35 mg/kg pentobarbital, a cannula was inserted into the respiratory tract and connected to an artificial respirator, a cannula was inserted into the jugular vein, and treatment was performed by 5 mg/kg suxamethonium and 5 mg/kg mepyramine. Next, the guinea pig was inhaled a nebulized ovalbumin to cause bronchoconstriction and the activity in inhibiting bronchoconstriction was found from the ratio of the amount of overflow volume to the detector to the amount of air blown volume from the artificial respirator.
As the test compound, the present Compound (I) were used, and as the control, the above compound (A) and the thromboxane synthase inhibitor ozagrel hydrochloride (OKY-046) were used.

| Compound | ED50 [1] [mg/kg] | ED50 [2] [mg/kg] | IC50 [3] [nM] | IC50 [4] [nM] | Suppression rate of respiratory constriction ([5]; 50 mg/kg oral) [%] | Suppression rate of respiratory constriction ([5]; 100 mg/kg oral) [%] |
| --- | --- | --- | --- | --- | --- | --- |
| NC(=O)N(O)CC1=Cc2cc(OCc3cccnc3)ccc2OC1 [(B)] | 9 | > 10 | – | – | – | – |
| NC(=O)N(O)CC1=Cc2cc(Cc3cccnc3)ccc2OC1 [Compound (I), N-hydroxy-N-[6-(3-pyridylmethyl)-2H-1-benzopyran-3-ylmethyl]urea] | 1.7 | 1.5 | 200 | 300 | 75 | – |
| NC(=O)N(O)CC1=Cc2cc(Oc3ccccc3)ccc2OC1 [Compound (A)] | 1.7 | > 30 | – | – | – | 26 |
| O=C(O)/C=C/c1ccc(Cn2ccnc2)cc1 [OKY-046, ozagrel hydrochloride] | – | – | – | – | – | 42 |

Source: patent US6291482A, “N-hydroxyurea derivative and pharmaceutical composition containing the same” (Nikken Chemicals Co., LTD, priority 1997, dated 2001)
